pIC50: −log10 of the molar value. Where two headings read alike, the source gives them in different places.
How the values were obtained:
[1] = biological target: T1, Full length wild-type cereblon CRBN (Homo sapiens, UniProt Q96SW2); assay: Fluorescence polarization (FP) assay indicating cereblon binding; details: CRBN 80.0 nM, fluorescent probe 5 nM, FP measured after 12 hours; read-out: rFP IC50
T1 construct: Full length wild-type cereblon CRBN (80.0 nM, 10 μL) was incubated in assay buffer
Excerpt: Protocol for Fluorescent Polarization Assay
Compound activity was monitored in a fluorescence polarization (FP) homogeneous assay using 1-[5-({2-[2-(2-{[2-(2,6-dioxopiperidin-3-yl)-1,3-dioxo-2,3-dihydro-1H-isoindol-4-yl]oxy}acetamido)ethoxy]ethyl}carbamoyl)pentyl]-3,3-dimethyl-2-[(1E,3E)-5-[(2E)-1,3,3-trimethyl-5-sulfo-2,3-dihydro-1H-indol-2-ylidene]penta-1,3-dien-1-yl]-3H-indol-1-ium-5-sulfonate as a fluorescent probe. Unless otherwise stated, all reagents were purchased from Sigma Aldrich. Enzymatic reactions were conducted in Perkin-Elmer Black 384 well ProxiPlate Plus (catalogue no. 6008269) in 10 μL total volume. Full length wild-type cereblon CRBN (80.0 nM, 10 μL) was incubated in assay buffer containing 20 mM HEPES (pH 8.0), […], 0.5 mM TCEP and 0.05% Tween 20 in the presence or absence of compound (300 nL). Inhibitors were stored as 10 mM DMSO stocks in an inert environment (low humidity, dark, low oxygen, room temperature) using the Storage Pod System. Compounds and DMSO were dispensed using the Echo E5XX (Labcyte Inc. USA) to give concentrations from 300 to 0.937 or 3000 to 9.3 nM in a 12 data point curve. […] Following incubation at room temperature for […], the assay was initiated by dispensing the probe to a final concentration of 5 nM (2.5 nL of a 20 μM stock) using the Echo E5XX. FP was measured after a period of 12 hours using a Pherastar plate reader (BMG Labtech, Germany) exciting at 590 nm and measuring the amount of parallel and perpendicular light at 675 nm. The FP signal was subsequently normalized to the no-compound control (i.e., DMSO). Analysis and IC50 values were derived using Dotmatics (Dotmatics UK) software.

GSPT1 = GSPT1 (Homo sapiens, UniProt P15170+Q96SW2); assay: Immunofluorescence assay for GSPT1 degradation in CAL-51 cells; type: cell-based; parameters: CAL-51 cells were purchased from DSMZ (cat. Number ACC302); endogenous in cells; host or cells: CAL-51 (DSMZ ACC302); details: compound treatment 6 hours
GSPT1, sequence (P15170 whole entry): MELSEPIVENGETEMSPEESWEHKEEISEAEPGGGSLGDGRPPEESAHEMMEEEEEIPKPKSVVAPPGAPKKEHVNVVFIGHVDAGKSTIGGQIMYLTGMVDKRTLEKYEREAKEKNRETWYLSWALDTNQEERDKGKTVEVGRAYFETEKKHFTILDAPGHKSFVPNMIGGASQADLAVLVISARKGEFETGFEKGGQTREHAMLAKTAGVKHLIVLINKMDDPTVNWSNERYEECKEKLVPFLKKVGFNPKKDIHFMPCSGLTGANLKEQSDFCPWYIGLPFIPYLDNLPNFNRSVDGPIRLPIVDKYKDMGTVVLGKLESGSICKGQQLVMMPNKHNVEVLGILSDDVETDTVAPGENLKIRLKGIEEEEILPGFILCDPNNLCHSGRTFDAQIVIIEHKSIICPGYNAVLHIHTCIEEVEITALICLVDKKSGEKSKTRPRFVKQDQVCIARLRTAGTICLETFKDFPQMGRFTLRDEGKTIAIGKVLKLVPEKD
GSPT1, sequence (Q96SW2 whole entry): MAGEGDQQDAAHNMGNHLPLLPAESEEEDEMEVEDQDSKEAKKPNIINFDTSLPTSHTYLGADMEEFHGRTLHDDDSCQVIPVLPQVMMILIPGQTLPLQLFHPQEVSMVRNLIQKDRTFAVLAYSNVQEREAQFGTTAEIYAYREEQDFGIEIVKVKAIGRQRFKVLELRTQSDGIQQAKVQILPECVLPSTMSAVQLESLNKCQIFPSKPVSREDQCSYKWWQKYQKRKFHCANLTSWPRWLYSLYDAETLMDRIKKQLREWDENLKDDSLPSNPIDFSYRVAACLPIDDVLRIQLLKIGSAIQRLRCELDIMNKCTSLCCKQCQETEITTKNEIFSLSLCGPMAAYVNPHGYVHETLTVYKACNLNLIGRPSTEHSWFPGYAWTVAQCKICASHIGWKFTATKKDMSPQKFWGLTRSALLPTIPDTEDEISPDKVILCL
GSPT1, sequence (Q16531 2-1140 partner limits assumed): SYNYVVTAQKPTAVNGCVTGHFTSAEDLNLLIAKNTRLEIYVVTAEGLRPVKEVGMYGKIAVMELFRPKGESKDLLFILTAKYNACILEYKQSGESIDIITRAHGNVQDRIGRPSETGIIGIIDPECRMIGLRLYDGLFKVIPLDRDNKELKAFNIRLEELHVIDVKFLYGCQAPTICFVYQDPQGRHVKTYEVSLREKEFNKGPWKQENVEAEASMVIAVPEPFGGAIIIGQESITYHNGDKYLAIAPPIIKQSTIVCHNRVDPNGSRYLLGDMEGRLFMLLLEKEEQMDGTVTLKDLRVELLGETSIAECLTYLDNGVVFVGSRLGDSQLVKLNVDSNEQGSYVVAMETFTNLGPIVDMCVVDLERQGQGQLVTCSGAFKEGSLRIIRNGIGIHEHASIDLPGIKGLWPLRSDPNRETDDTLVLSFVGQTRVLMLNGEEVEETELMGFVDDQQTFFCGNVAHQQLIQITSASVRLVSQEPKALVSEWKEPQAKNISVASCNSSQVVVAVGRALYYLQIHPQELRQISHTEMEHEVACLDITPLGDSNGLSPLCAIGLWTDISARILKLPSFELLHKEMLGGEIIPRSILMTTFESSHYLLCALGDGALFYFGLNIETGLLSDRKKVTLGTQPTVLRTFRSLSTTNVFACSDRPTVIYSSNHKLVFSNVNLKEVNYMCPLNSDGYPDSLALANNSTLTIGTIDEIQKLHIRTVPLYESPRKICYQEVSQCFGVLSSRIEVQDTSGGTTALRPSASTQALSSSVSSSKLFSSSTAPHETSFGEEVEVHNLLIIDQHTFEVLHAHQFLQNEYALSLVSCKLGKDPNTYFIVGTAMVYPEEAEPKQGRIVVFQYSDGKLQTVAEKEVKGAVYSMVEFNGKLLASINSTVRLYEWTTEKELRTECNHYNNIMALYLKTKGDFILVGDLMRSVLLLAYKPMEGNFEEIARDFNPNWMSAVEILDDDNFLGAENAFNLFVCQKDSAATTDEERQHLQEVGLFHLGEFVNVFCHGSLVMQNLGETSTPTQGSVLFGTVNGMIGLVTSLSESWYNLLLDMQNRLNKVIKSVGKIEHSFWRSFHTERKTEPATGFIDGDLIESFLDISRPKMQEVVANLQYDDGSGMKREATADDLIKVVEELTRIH
Description: CAL-51 cells were purchased from DSMZ (cat. Number ACC302), sub-cultured in 90% Dulbecco's MEM (4.5 g/L glucose, Gibco 11965) +10% heat inactivated FBS (BioConcept, 2-01F136I) and incubated at 37° C., 5% CO2. For the assay, imaging microtiterplate Cell Carrier 96 Ultra (Perkin Elmer 6055302) were pre-coated with Fibronectin (Sigma F085, 300 at 0.2 μg/ml) in PBS (1000, Gibco 14190) for 45 min at room temperature, rinsed with PBS and CAL-51 cells (30K cells/well) were plated and let to adhere overnight. Cells were treated with compounds typically using a serial dilution ranging from 30 μM to 0.1 nM for 6 hours. Compounds were stored at 10 mM DMSO stocks. Vehicle (DMSO), positive (CC-885, 10 μM) and rescue controls (positive control plus 0.2 μM bortezomib) were also included at this stage. Cells were subsequently rinsed with PBS and fixed in 10% Formalin solution (50 μl, Sigma HT5011)) for 20 mins at room temperature. Following three consecutive PBS washes (100 μl), cells were permeabilized in 0.1% Triton X-100 in PBS (Sigma 93443, 50 μl) for 15 mins at room temperature. Following three further PBS washes, 50 μl blocking buffer (1% BSA, Sigma A4503, in PBS) was added for 45 min for signal-to-noise reduction. Primary antibody (human GSPT1, Sigma HPA052488) was diluted in blocking buffer (dil. 1/300, 35 μl/well) and incubated with the cells overnight at 4° C. After three PBS washes, Alexa-fluor 488 coupled secondary antibodies (Invitrogen, A32731, dil. 1/1000), Alexa-fluor 647-Phalloïdin (Invitrogen, A22287, dil. 1/200) and DAPI (Thermo, #62248, dil.1/1000) were diluted in blocking buffer and incubated with the samples for 2 hours at room temperature. After three final PBS washes, samples were conserved in 1000 PBS in the dark, until measurement. Image acquisition was performed on the Operetta High-Content Imager (Perkin-Elmer). Fluorescence intensity of Alexa-Fluor 488 (GSPT1), Alexa-Fluor 647 (Actin) and DAPI (Nucleus) were measured. For the determination of GSPT1 DC50 values, a custom algorithm implemented in the PerkinElmer image analysis software Harmony-Acapella® was developed. After user-defined setting of adjustment parameters, the analysis was run identically without human intervention for all image fields. DAPI staining of the nuclei was used to determine the location of cells using standard nuclei detection modules. Segmentation artifacts were removed by threshold-based filters for area, roundness and intensity. The outline of the cells was determined analogously from the sum of the normalized, smoothed DAPI and Actin channel, starting from each nucleus. The Alexa-Fluor 488 (GSPT1) signal intensity in each cell was finally measured, in order to obtain a Mean intensity per cell. GSPT1 degradation (DC50) was calculated after normalization to controls and data import in CDD vault Database, using non-linear regression. Activity for GSPT1 Degradation Table 3 assigns each compound a code indicating the ability for GSPT1 degradation: A, B or C. According to the code, A represents a DC50 value of ≤100 nM, B represents a DC50 value >100 nM and ≤300 nM and C represents a DC50 value of >300 nM.

[2] = GSPT1 degradation, read-out: DC50
[3] = read-out: Code: activity for GSPT1 degradation (DC50)

T1 sequence (Q96SW2 whole entry): as the sequence (Q96SW2 whole entry) above

SMILES | pIC50 [1] | DC50 (GSPT1; [2]) | DC50 (GSPT1; [3])
Cn1nccc1-c1cccc(NC(=O)NCc2ccc3c(c2)C(=O)N(C2CCC(=O)NC2=O)C3)c1 (centres unmarked) [Compound 115] | 6.64 | 299 nM | 100 to 300 nM
Cc1cc(NC(=O)NCc2ccc3c(c2)C(=O)N(C2CCC(=O)NC2=O)C3)cc(CN2CCOCC2)c1C (centres unmarked) [Compound 118] | 6.59 |  | ≤ 100 nM
O=C1CCC(N2Cc3ccc(CNC(=O)Nc4cc[nH]c4)cc3C2=O)C(=O)N1 (centres unmarked) [Compound 98] | 6.39 |  | > 300 nM
O=C1CCC(N2Cc3ccc(CNC(=O)Nc4cc[nH]n4)cc3C2=O)C(=O)N1 (centres unmarked) [Compound 102] | 6.41 |  | > 300 nM
O=C1CCC(N2Cc3ccc(CNC(=O)Nc4cccc(C(F)F)c4)cc3C2=O)C(=O)N1 (centres unmarked) [Compound 106] | 6.45 | 188 nM | 100 to 300 nM
O=C1CCC(N2Cc3ccc(CNC(=O)Nc4cccs4)cc3C2=O)C(=O)N1 (centres unmarked) [Compound 91] | 6.50 |  | > 300 nM
Cc1c(Cl)cc(NC(=O)NCc2ccc3c(c2)C(=O)N(C2CCC(=O)NC2=O)C3)cc1OCCCN(C)C (centres unmarked) [Compound 117] | 6.82 |  | > 300 nM
Cc1c(Cl)cc(NC(=O)NCc2ccc3c(c2)C(=O)N(C2CCC(=O)NC2=O)C3)cc1CN1CC2(COC2)C1 (centres unmarked) [Compound 109] | 6.79 | 246 nM | 100 to 300 nM
O=C1CCC(N2Cc3ccc(CNC(=O)Nc4cn[nH]c4)cc3C2=O)C(=O)N1 (centres unmarked) [Compound 108] | 6.18 |  | > 300 nM
O=C1CCC(N2Cc3ccc(CNC(=O)Nc4cccnc4)cc3C2=O)C(=O)N1 (centres unmarked) [Compound 95] | 6.36 |  | > 300 nM
Cc1cc(C)c(NC(=O)NCc2ccc3c(c2)C(=O)N(C2CCC(=O)NC2=O)C3)c(Cl)c1Cl (centres unmarked) [Compound 100] | 6.75 |  | > 300 nM
Nc1ccc(NC(=O)NCc2ccc3c(c2)C(=O)N(C2CCC(=O)NC2=O)C3)cc1 (centres unmarked) [Compound 81] | 6.04 |  | > 300 nM
Nc1cccc(NC(=O)NCc2ccc3c(c2)C(=O)N(C2CCC(=O)NC2=O)C3)c1 (centres unmarked) [Compound 80] | 6.29 |  | > 300 nM
CN(C)c1cccc(NC(=O)NCc2ccc3c(c2)C(=O)N(C2CCC(=O)NC2=O)C3)c1 (centres unmarked) [Compound 89] | 6.65 | 198 nM | 100 to 300 nM
Cn1ccc(-c2cccc(NC(=O)NCc3ccc4c(c3)C(=O)N(C3CCC(=O)NC3=O)C4)c2)n1 (centres unmarked) [Compound 116] | 6.86 |  | > 300 nM
COc1c(NC(=O)NCc2ccc3c(c2)C(=O)N(C2CCC(=O)NC2=O)C3)ccc(C)c1Cl (centres unmarked) [Compound 86] | 6.69 |  | > 300 nM
O=C1CCC(N2Cc3ccc(CNC(=O)Nc4ccncc4)cc3C2=O)C(=O)N1 (centres unmarked) [Compound 104] | 6.63 |  | > 300 nM
O=C1CCC(N2Cc3ccc(CNC(=O)Nc4cc(Cl)cc(CN5CCOCC5)c4)cc3C2=O)C(=O)N1 (centres unmarked) [Compound 119] | 6.39 |  | ≤ 100 nM

Further lines, results first:

pIC50 [1] | DC50 (GSPT1; [2]) | DC50 (GSPT1; [3]) | SMILES
6.52 |  | > 300 nM | Cc1nc(NC(=O)NCc2ccc3c(c2)C(=O)N(C2CCC(=O)NC2=O)C3)sc1C (centres unmarked) [Compound 150]
6.45 |  | > 300 nM | CN1CCC(Oc2cccc(NC(=O)NCc3ccc4c(c3)C(=O)N(C3CCC(=O)NC3=O)C4)c2)CC1 (centres unmarked) [Compound 130]
6.52 |  | > 300 nM | CN1CCC(COc2cc(Cl)cc(NC(=O)NCc3ccc4c(c3)C(=O)N(C3CCC(=O)NC3=O)C4)c2)C1 (centres unmarked) [Compound 161]
6.37 |  | > 300 nM | CN(C)CC(=O)Oc1cccc(NC(=O)NCc2ccc3c(c2)C(=O)N(C2CCC(=O)NC2=O)C3)c1 (centres unmarked) [Compound 136]
6.40 |  | > 300 nM | Cc1c(Cl)cc(NC(=O)NCc2ccc3c(c2)C(=O)N(C2CCC(=O)NC2=O)C3)cc1OCCN(C)C (centres unmarked) [Compound 134]
6.46 |  | ≤ 100 nM | Cc1c(Cl)cc(NC(=O)NCc2ccc3c(c2)C(=O)N(C2CCC(=O)NC2=O)C3)cc1N(C)C (centres unmarked) [Compound 129]
5.84 |  | > 300 nM | Cc1cc(NC(=O)NCc2ccc3c(c2)C(=O)N(C2CCC(=O)NC2=O)C3)cc(C)n1 (centres unmarked) [Compound 158]
6.05 |  | ≤ 100 nM | Cc1c(CN2CCOCC2)cc(NC(=O)NCc2ccc3c(c2)C(=O)N(C2CCC(=O)NC2=O)C3)cc1OC(F)(F)F (centres unmarked) [Compound 151]
6.23 |  | ≤ 100 nM | Cc1c(Cl)cc(NC(=O)NCc2ccc3c(c2)C(=O)N(C2CCC(=O)NC2=O)C3)cc1CC1COC(C)(C)OC1 (centres unmarked) [Compound 142]
6.77 |  | > 300 nM | CCc1cnc(NC(=O)NCc2ccc3c(c2)C(=O)N(C2CCC(=O)NC2=O)C3)s1 (centres unmarked) [Compound 148]
5.94 |  | > 300 nM | Cc1ccc(NC(=O)NCc2ccc3c(c2)C(=O)N(C2CCC(=O)NC2=O)C3)nc1Cl (centres unmarked) [Compound 137]
5.82 |  | > 300 nM | Cc1ncc(NC(=O)NCc2ccc3c(c2)C(=O)N(C2CCC(=O)NC2=O)C3)cc1Cl (centres unmarked) [Compound 157]
6.52 |  | > 300 nM | Cn1ccc(NC(=O)NCc2ccc3c(c2)C(=O)N(C2CCC(=O)NC2=O)C3)c1 (centres unmarked) [Compound 128]
6.60 |  | > 300 nM | Cc1cnc(NC(=O)NCc2ccc3c(c2)C(=O)N(C2CCC(=O)NC2=O)C3)s1 (centres unmarked) [Compound 147]
5.83 |  | ≤ 100 nM | CC(C)(C)c1ccc(NC(=O)NCc2ccc3c(c2)C(=O)N(C2CCC(=O)NC2=O)C3)cn1 (centres unmarked) [Compound 163]
6.26 |  | ≤ 100 nM | Cc1ccc(NC(=O)NCc2ccc3c(c2)C(=O)N(C2CCC(=O)NC2=O)C3)cc1OC(F)(F)F (centres unmarked) [Compound 144]
5.44 |  | 100 to 300 nM | Cc1c(Cl)cc(NC(=O)NCc2ccc3c(c2)C(=O)N(C2CCC(=O)NC2=O)C3)cc1OC(F)(F)F (centres unmarked) [Compound 143]
6.32 |  | > 300 nM | CC(C)(O)c1cccc(NC(=O)NCc2ccc3c(c2)C(=O)N(C2CCC(=O)NC2=O)C3)c1 (centres unmarked) [Compound 135]
6.34 |  | > 300 nM | Cc1c(Cl)cc(NC(=O)NCc2ccc3c(c2)C(=O)N(C2CCC(=O)NC2=O)C3)cc1CC(=O)O (centres unmarked) [Compound 120]
5.79 |  | > 300 nM | O=C1CCC(N2Cc3ccc(CNC(=O)Nc4cc(F)cc(OC(F)(F)F)c4)cc3C2=O)C(=O)N1 (centres unmarked) [Compound 165]
